Laboratory results published in ChEMBL document CHEMBL3045792, “Synthesis, antimicrobial activity, and molecular modeling of novel 4-(3-(4-benzylpiperazin-1-yl)propoxy)-7-methoxy-3-substituted phenyl-2H-chromen-2-one” (2013).
Calls of active or inactive are those of the source. The calls are words filed in the database; no cut-off is given here.

Legend:
Format in all cases: functional
Staphylococcus aureus [1] = experiment: Antibacterial activity against Staphylococcus aureus assessed as growth inhibition at 600 ug/ml by NCCLS […] method; details: read-out: IZ
Exserohilum rostratum [2] = experiment: Antifungal activity against Setosphaeria rostrata assessed as growth inhibition at 600 ug/ml; details: read-out: IZ
Bacillus pumilus [3] = experiment: Antibacterial activity against Bacillus pumilus assessed as growth inhibition at 900 ug/ml by NCCLS […] method
Colletotrichum falcatum [4] = experiment: Antifungal activity against Glomerella tucumanensis assessed as growth inhibition at 900 ug/ml; details: read-out: IZ
Fusarium oxysporum [5] = experiment: Antifungal activity against Fusarium oxysporum assessed as growth inhibition at 900 ug/ml; details: read-out: IZ
Fusarium oxysporum [6] = experiment: Antifungal activity against Fusarium oxysporum assessed as growth inhibition at 1200 ug/ml; details: read-out: IZ
Streptococcus pyogenes [7] = experiment: Antibacterial activity against Streptococcus pyogenes assessed as growth inhibition at 600 ug/ml by NCCLS […] method; details: read-out: IZ
Colletotrichum falcatum [8] = experiment: Antifungal activity against Glomerella tucumanensis assessed as growth inhibition at 1200 ug/ml; details: read-out: IZ
Bacillus subtilis [9] = experiment: Antibacterial activity against Bacillus subtilis assessed as growth inhibition at 900 ug/ml by NCCLS […] method; details: read-out: IZ
Klebsiella aerogenes [10] = experiment: Antibacterial activity against Enterobacter aerogenes assessed as growth inhibition at 900 ug/ml by NCCLS […] method; details: read-out: IZ
Fusarium oxysporum [11] = experiment: Antifungal activity against Fusarium oxysporum assessed as growth inhibition at 600 ug/ml; details: read-out: IZ
Fusarium oxysporum [12] = experiment: Antifungal activity against Fusarium oxysporum assessed as growth inhibition at 300 ug/ml; details: read-out: IZ
Colletotrichum falcatum [13] = experiment: Antifungal activity against Glomerella tucumanensis assessed as growth inhibition at 600 ug/ml; details: read-out: IZ
Staphylococcus aureus [14] = experiment: Antibacterial activity against Staphylococcus aureus assessed as growth inhibition at 900 ug/ml by NCCLS […] method; details: read-out: IZ
Candida albicans [15] = experiment: Antifungal activity against Candida albicans assessed as growth inhibition at 900 ug/ml; details: read-out: IZ
Exserohilum rostratum [16] = experiment: Antifungal activity against Setosphaeria rostrata assessed as growth inhibition at 1200 ug/ml; details: read-out: IZ
Klebsiella aerogenes [17] = experiment: Antibacterial activity against Enterobacter aerogenes assessed as growth inhibition at 600 ug/ml by NCCLS […] method; details: read-out: IZ
Escherichia coli [18] = experiment: Antibacterial activity against Escherichia coli assessed as growth inhibition at 600 ug/ml by NCCLS […] method; details: read-out: IZ
Escherichia coli [19] = experiment: Antibacterial activity against Escherichia coli assessed as growth inhibition at 900 ug/ml by NCCLS […] method; details: read-out: IZ
Candida albicans [20] = experiment: Antifungal activity against Candida albicans assessed as growth inhibition at 1200 ug/ml; details: read-out: IZ
Streptococcus pyogenes [21] = experiment: Antibacterial activity against Streptococcus pyogenes assessed as growth inhibition at 900 ug/ml by NCCLS […] method; details: read-out: IZ
Priestia megaterium [22] = experiment: Antibacterial activity against Bacillus megaterium assessed as growth inhibition at 600 ug/ml by NCCLS […] method; details: read-out: IZ
Proteus vulgaris [23] = experiment: Antibacterial activity against Proteus vulgaris assessed as growth inhibition at 600 ug/ml by NCCLS […] method; details: read-out: IZ
Klebsiella pneumoniae [24] = experiment: Antibacterial activity against Klebsiella pneumoniae assessed as growth inhibition at 900 ug/ml by NCCLS […] method; details: read-out: IZ
Bacillus subtilis [25] = experiment: Antibacterial activity against Bacillus subtilis assessed as growth inhibition at 600 ug/ml by NCCLS […] method; details: read-out: IZ
Proteus mirabilis [26] = experiment: Antibacterial activity against Proteus mirabilis assessed as growth inhibition at 600 ug/ml by NCCLS […] method; details: read-out: IZ
Colletotrichum falcatum [27] = experiment: Antifungal activity against Glomerella tucumanensis assessed as growth inhibition at 300 ug/ml; details: read-out: IZ
Bacillus pumilus [28] = experiment: Antibacterial activity against Bacillus pumilus assessed as growth inhibition at 600 ug/ml by NCCLS […] method
Proteus mirabilis [29] = experiment: Antibacterial activity against Proteus mirabilis assessed as growth inhibition at 900 ug/ml by NCCLS […] method; details: read-out: IZ
Exserohilum rostratum [30] = experiment: Antifungal activity against Setosphaeria rostrata assessed as growth inhibition at 300 ug/ml; details: read-out: IZ
Klebsiella pneumoniae [31] = experiment: Antibacterial activity against Klebsiella pneumoniae assessed as growth inhibition at 600 ug/ml by NCCLS […] method; details: read-out: IZ
Exserohilum rostratum [32] = experiment: Antifungal activity against Setosphaeria rostrata assessed as growth inhibition at 900 ug/ml; details: read-out: IZ
Priestia megaterium [33] = experiment: Antibacterial activity against Bacillus megaterium assessed as growth inhibition at 900 ug/ml by NCCLS […] method; details: read-out: IZ
Candida albicans [34] = experiment: Antifungal activity against Candida albicans assessed as growth inhibition at 600 ug/ml; details: read-out: IZ
Candida albicans [35] = experiment: Antifungal activity against Candida albicans assessed as growth inhibition at 300 ug/ml; details: read-out: IZ
Proteus vulgaris [36] = experiment: Antibacterial activity against Proteus vulgaris assessed as growth inhibition at 900 ug/ml by NCCLS […] method; details: read-out: IZ

## COc1ccc2c(OCCCN3CCN(Cc4cccnc4)CC3)c(-c3ccccc3)c(=O)oc2c1
Staphylococcus aureus [1]
  zone of inhibition at 600 µg/mL: 11.6 mm
Exserohilum rostratum [2]
  zone of inhibition at 600 µg/mL: 6.76 mm
Bacillus pumilus [3]
  growth inhibition (GI): inactive
Colletotrichum falcatum [4]
  zone of inhibition at 900 µg/mL: 13.2 mm
Fusarium oxysporum [5]
  zone of inhibition at 900 µg/mL: 18.8 mm
Fusarium oxysporum [6]
  zone of inhibition at 1200 µg/mL: 27.9 mm
Streptococcus pyogenes [7]
  zone of inhibition at 600 µg/mL: 9.12 mm
Colletotrichum falcatum [8]
  zone of inhibition at 1200 µg/mL: 27 mm
Bacillus subtilis [9]
  zone of inhibition at 900 µg/mL: 15.1 mm
Klebsiella aerogenes [10]
  zone of inhibition at 900 µg/mL: 8.56 mm
Fusarium oxysporum [11]
  zone of inhibition at 600 µg/mL: 8.78 mm
Fusarium oxysporum [12]
  zone of inhibition at 300 µg/mL: 3.47 mm
Colletotrichum falcatum [13]
  zone of inhibition at 600 µg/mL: 7.76 mm
Staphylococcus aureus [14]
  zone of inhibition at 900 µg/mL: 21.4 mm
Candida albicans [15]
  zone of inhibition at 900 µg/mL: 13.7 mm
Exserohilum rostratum [16]
  zone of inhibition at 1200 µg/mL: 23.4 mm
Klebsiella aerogenes [17]
  zone of inhibition at 600 µg/mL: 4.22 mm
Escherichia coli [18]
  zone of inhibition at 600 µg/mL: 3.87 mm
Escherichia coli [19]
  zone of inhibition at 900 µg/mL: 6.21 mm
Candida albicans [20]
  zone of inhibition at 1200 µg/mL: 24.6 mm
Streptococcus pyogenes [21]
  zone of inhibition at 900 µg/mL: 16.8 mm
Priestia megaterium [22]
  zone of inhibition at 600 µg/mL: 7.65 mm
Proteus vulgaris [23]
  zone of inhibition at 600 µg/mL: 8.76 mm
Klebsiella pneumoniae [24]
  zone of inhibition at 900 µg/mL: 7.93 mm
Bacillus subtilis [25]
  zone of inhibition at 600 µg/mL: 8.76 mm
Proteus mirabilis [26]
  zone of inhibition at 600 µg/mL: 11.3 mm
Colletotrichum falcatum [27]
  zone of inhibition at 300 µg/mL: 4.45 mm
Bacillus pumilus [28]
  growth inhibition (GI): inactive
Proteus mirabilis [29]
  zone of inhibition at 900 µg/mL: 21.6 mm
Exserohilum rostratum [30]
  zone of inhibition at 300 µg/mL: 2.9 mm
Klebsiella pneumoniae [31]
  zone of inhibition at 600 µg/mL: 3.78 mm
Exserohilum rostratum [32]
  zone of inhibition at 900 µg/mL: 11.9 mm
Priestia megaterium [33]
  zone of inhibition at 900 µg/mL: 13.4 mm
Candida albicans [34]
  zone of inhibition at 600 µg/mL: 6.14 mm
Candida albicans [35]
  zone of inhibition at 300 µg/mL: 3.21 mm
Proteus vulgaris [36]
  zone of inhibition at 900 µg/mL: 17.1 mm

## COc1ccc2c(OCCCN3CCN(Cc4ccc[nH]4)CC3)c(-c3ccccc3)c(=O)oc2c1
Staphylococcus aureus [1]
  zone of inhibition at 600 µg/mL: 14.8 mm
Exserohilum rostratum [2]
  zone of inhibition at 600 µg/mL: 7.01 mm
Bacillus pumilus [3]; read-out: IZ
  zone of inhibition at 900 µg/mL: 15.5 mm
Colletotrichum falcatum [4]
  zone of inhibition at 900 µg/mL: 10.1 mm
Fusarium oxysporum [5]
  zone of inhibition at 900 µg/mL: 20 mm
Fusarium oxysporum [6]
  zone of inhibition at 1200 µg/mL: 31.6 mm
Streptococcus pyogenes [7]
  zone of inhibition at 600 µg/mL: 9.1 mm
Colletotrichum falcatum [8]
  zone of inhibition at 1200 µg/mL: 19.6 mm
Bacillus subtilis [9]
  zone of inhibition at 900 µg/mL: 7.87 mm
Klebsiella aerogenes [10]
  zone of inhibition at 900 µg/mL: 8.9 mm
Fusarium oxysporum [11]
  zone of inhibition at 600 µg/mL: 10.2 mm
Fusarium oxysporum [12]
  zone of inhibition at 300 µg/mL: 5.34 mm
Colletotrichum falcatum [13]
  zone of inhibition at 600 µg/mL: 5.84 mm
Staphylococcus aureus [14]
  zone of inhibition at 900 µg/mL: 25.3 mm
Candida albicans [15]
  zone of inhibition at 900 µg/mL: 13.9 mm
Exserohilum rostratum [16]
  zone of inhibition at 1200 µg/mL: 25.3 mm
Klebsiella aerogenes [17]
  zone of inhibition at 600 µg/mL: 4.78 mm
Escherichia coli [18]
  zone of inhibition at 600 µg/mL: 3.22 mm
Escherichia coli [19]
  zone of inhibition at 900 µg/mL: 6.04 mm
Candida albicans [20]
  zone of inhibition at 1200 µg/mL: 27 mm
Streptococcus pyogenes [21]
  zone of inhibition at 900 µg/mL: 18 mm
Priestia megaterium [22]
  zone of inhibition at 600 µg/mL: 6.32 mm
Proteus vulgaris [23]
  zone of inhibition at 600 µg/mL: 8.12 mm
Klebsiella pneumoniae [24]
  zone of inhibition at 900 µg/mL: 8.12 mm
Bacillus subtilis [25]
  zone of inhibition at 600 µg/mL: 4.21 mm
Proteus mirabilis [26]
  zone of inhibition at 600 µg/mL: 10.9 mm
Colletotrichum falcatum [27]
  zone of inhibition at 300 µg/mL: 3.02 mm
Bacillus pumilus [28]; read-out: IZ
  zone of inhibition at 600 µg/mL: 7.49 mm
Proteus mirabilis [29]
  zone of inhibition at 900 µg/mL: 19.4 mm
Exserohilum rostratum [30]
  zone of inhibition at 300 µg/mL: 3.54 mm
Klebsiella pneumoniae [31]
  zone of inhibition at 600 µg/mL: 4.21 mm
Exserohilum rostratum [32]
  zone of inhibition at 900 µg/mL: 13.9 mm
Priestia megaterium [33]
  zone of inhibition at 900 µg/mL: 12.4 mm
Candida albicans [34]
  zone of inhibition at 600 µg/mL: 7.77 mm
Candida albicans [35]
  zone of inhibition at 300 µg/mL: 4.02 mm
Proteus vulgaris [36]
  zone of inhibition at 900 µg/mL: 16 mm
